Data set [1] concerns the target S. gregaria-Na^+/K^+-ATPase (Schistocerca gregaria, UniProt A0A8E5JSN5). It is filed as biochemical. The conditions noted are these: for IC50: read-out: IC50 S. gregaria- Na^+/K^+-ATPase, Na+/K+-ATPase extracted from locust recta. On the procedure:
(§1) Danaus plexippus was caught in the field or purchased; E. core and S. gregaria were obtained commercially, with additional E. core from a laboratory colony. […] Briefly, brains dissected from butterflies stored at -80°C or recta from locusts were homogenized (individually or pooled) with an all glass grinder (Wheaton) in deionized water, frozen at -80°C, freeze-dried, and stored frozen until use. For in vitro assays, lyophilisates were dissolved in water, sonicated in an ultrasonic bath, and centrifuged to remove undissolved matter. All cardiac glycosides were tested at least with three biological replicates of Na^+/K^+-ATPase (i.e., Na^+/K^+-ATPase from genetically different specimens or pools of specimens).
(§2) Means of duplicate determinations (i.e., technical replicates) were used as data points. In consequence, each data point of a dose–response curve is the mean of at least three biological replicates based on two technical replicates, each. […] Here, technical replicates collected on the same 96-well plate were averaged and used as data points.
(§3) Stock solutions of cardiac glycosides, as well as pregnane glycosides, were prepared from crystalline compounds in DMSO. While concentrations of all other compounds were based on mass, calactin, and calotropin stock solutions were adjusted with HPLC using digitoxin as a reference.
(§4) Pairwise statistical comparisons of dose-response curves were carried out using the “compare datasets” option in OriginPro, which is based on an F-Test evaluating if the two curves are identical. Correlation analyses using log10-transformed IC50 values was also carried out with OriginPro. […] To analyze relative selectivity without a reference, we also plotted the fold differences between the IC50 values of individual cardenolides for non-adapted and adapted insect Na^+/K^+-ATPase and compared them to mammalian (lamb) Na^+/K^+-ATPase (Figure 2).

Data set [2] has as its target D. plexippus-Na^+/K^+-ATPase (Danaus plexippus, UniProt K0G7C4). Description: In vitro inhibition assay of D. plexippus Na+/K+-ATPase (phosphate release). The note with it: for inhibition of D. plexippus Na^+/K^+-ATPase compared to ouabain: DP, F-test comparison of entire dose-response curves with ouabain; for IC50: read-out: IC50 D. plexippus- Na^+/K^+-ATPase, Na+/K+-ATPase extracted from butterfly brains. It is filed as biochemical. On the procedure: as §1, §2, §3, §4

Data set [3] can be described thus: physchem. The note with it: for solubility: aqueous with cosolvent or surfactant or cyclodextrin, kinetic from dmso stock. On the procedure: as §3
Details of data set [4]: method as in Imai et al., 1965. The note with it: ref Imai et al., 1965; cited from earlier work.
The target of data set [5] is E. core-Na^+/K^+-ATPase (Euploea core, UniProt A0A5C0C9F5). Description: In vitro inhibition assay of E. core Na+/K+-ATPase (phosphate release). The note with it: for IC50: read-out: IC50 E. core- Na^+/K^+-ATPase, Na+/K+-ATPase extracted from butterfly brains. It is filed as biochemical. On the procedure: as §1, §2, §3, §4
The target in data set [6] is porcine Na^+/K^+-ATPase. Description: In vitro inhibition assay of porcine Na+/K+-ATPase. It is filed as biochemical, pig. The note with it: purified from pig brain, 0.01 U/ml in the assay. On the procedure: Lyophilized Na^+/K^+-ATPase was dissolved in water to a concentration of 1 U/ml, stored at -80°C in single-use aliquots and diluted with H2O to 0.05 U/ml for use in the in vitro assay (final concentration in the assay 0.01 U/ml).
as §4

Setting [7] is: both dissolved in 25% DMSO, F-test of curves.

This is an account of results in article PMC6172315, “Relative Selectivity of Plant Cardenolides for Na^+/K^+-ATPases From the Monarch Butterfly and Non-resistant Insects” (Frontiers in Plant Science, 2018).

“Also recorded” adds a separate entry of the source.

Sequence of E. core-Na^+/K^+-ATPase (A0A5C0C9F5 1-1013): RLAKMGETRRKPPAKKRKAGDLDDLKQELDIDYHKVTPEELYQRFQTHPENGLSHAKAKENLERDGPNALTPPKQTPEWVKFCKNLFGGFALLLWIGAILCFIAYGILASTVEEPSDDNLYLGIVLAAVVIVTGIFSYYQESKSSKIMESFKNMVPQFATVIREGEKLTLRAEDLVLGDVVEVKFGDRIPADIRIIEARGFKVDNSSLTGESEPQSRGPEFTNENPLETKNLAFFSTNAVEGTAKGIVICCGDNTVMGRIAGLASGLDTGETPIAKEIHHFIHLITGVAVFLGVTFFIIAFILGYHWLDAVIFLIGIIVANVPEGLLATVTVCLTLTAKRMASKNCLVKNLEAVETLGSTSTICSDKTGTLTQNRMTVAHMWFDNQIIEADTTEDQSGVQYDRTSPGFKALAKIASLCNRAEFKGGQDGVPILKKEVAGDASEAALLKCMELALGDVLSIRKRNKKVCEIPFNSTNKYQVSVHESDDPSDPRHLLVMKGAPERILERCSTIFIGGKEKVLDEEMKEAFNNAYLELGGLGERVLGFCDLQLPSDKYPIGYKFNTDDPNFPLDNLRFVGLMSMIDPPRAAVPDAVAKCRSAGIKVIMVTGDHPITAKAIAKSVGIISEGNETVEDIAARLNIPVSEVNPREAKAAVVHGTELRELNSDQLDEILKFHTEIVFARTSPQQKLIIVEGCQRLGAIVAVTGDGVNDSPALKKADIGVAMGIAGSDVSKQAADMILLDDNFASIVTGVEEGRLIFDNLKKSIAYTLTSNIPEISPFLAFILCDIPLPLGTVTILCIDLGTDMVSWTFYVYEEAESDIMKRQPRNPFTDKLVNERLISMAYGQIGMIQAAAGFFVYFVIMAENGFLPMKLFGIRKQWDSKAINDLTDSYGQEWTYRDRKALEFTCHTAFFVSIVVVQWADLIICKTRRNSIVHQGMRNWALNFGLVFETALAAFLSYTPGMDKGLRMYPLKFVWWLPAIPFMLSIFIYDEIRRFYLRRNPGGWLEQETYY
Sequence of D. plexippus-Na^+/K^+-ATPase (K0G7C4 1-1009): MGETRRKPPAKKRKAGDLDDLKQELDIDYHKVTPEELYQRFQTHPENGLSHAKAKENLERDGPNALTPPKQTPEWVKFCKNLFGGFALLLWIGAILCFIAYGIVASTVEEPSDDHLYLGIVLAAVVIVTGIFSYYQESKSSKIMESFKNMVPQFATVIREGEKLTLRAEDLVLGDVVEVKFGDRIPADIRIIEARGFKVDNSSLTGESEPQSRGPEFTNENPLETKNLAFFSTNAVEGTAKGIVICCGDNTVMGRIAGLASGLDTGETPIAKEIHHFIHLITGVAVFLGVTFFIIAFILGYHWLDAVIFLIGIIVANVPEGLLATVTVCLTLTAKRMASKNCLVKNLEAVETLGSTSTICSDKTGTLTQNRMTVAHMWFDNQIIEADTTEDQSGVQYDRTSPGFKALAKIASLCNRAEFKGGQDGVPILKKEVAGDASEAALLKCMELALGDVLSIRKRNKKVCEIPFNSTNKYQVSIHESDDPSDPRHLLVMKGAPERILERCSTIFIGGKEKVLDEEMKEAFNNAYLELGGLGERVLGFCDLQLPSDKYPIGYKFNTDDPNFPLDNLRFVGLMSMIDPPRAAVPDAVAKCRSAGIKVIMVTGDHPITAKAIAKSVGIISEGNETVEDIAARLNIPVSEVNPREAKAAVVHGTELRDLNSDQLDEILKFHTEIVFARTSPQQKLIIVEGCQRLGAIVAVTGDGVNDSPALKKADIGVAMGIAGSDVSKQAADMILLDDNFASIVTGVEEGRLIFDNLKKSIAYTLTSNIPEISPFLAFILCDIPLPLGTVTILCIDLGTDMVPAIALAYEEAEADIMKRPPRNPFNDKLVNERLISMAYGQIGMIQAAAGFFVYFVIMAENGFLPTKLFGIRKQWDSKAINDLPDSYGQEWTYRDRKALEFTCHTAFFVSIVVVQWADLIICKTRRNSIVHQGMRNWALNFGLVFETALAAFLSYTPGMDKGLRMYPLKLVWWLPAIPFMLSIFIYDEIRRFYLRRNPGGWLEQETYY
Sequence of S. gregaria-Na^+/K^+-ATPase (A0A8E5JSN5 1-1039): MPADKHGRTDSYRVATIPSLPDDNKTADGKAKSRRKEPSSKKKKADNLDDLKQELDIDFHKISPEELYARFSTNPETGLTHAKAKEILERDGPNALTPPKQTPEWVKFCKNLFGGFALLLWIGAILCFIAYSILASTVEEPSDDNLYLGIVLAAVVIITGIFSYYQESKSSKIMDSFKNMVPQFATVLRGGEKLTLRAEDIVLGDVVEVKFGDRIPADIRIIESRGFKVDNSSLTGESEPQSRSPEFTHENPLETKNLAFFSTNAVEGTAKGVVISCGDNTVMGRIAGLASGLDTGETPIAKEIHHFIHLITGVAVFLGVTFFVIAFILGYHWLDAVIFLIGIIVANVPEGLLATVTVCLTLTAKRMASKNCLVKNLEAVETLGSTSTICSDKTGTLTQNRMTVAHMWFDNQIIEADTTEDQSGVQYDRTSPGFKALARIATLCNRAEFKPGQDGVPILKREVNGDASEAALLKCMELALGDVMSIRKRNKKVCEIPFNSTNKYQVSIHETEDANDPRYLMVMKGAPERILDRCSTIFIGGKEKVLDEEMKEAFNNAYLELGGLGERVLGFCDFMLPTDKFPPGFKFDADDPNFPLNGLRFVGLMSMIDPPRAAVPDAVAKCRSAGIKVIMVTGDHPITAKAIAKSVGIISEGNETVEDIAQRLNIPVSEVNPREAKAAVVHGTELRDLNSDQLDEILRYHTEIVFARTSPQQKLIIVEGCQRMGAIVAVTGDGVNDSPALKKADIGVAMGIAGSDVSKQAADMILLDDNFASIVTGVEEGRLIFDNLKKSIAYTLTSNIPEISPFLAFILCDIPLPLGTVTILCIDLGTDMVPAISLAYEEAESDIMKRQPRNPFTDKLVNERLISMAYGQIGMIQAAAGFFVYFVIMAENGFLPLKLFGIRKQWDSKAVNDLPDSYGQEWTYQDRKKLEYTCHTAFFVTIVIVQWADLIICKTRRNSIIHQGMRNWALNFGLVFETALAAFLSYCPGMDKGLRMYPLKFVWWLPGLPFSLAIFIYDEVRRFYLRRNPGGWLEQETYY

For the compound `CO[C@H]1C[C@H](O[C@H]2CC[C@@]3(C)[C@H](CC[C@@H]4[C@@H]3CC[C@]3(C)[C@@H](C5=CC(=O)OC5)[C@@H](OC(C)=O)C[C@]43O)C2)O[C@@H](C)[C@@H]1O` [oleandrin], the “inhibition of S. gregaria Na^+/K^+-ATPase compared to ouabain” value in data set [1] (SG, F-test comparison of entire dose-response curves with ouabain) was “= ouabain; F2,6 = 2.24, p = 0.19”. Also, in data set [1], the IC50 was 834 nM. In data set [2], the “inhibition of D. plexippus Na^+/K^+-ATPase compared to ouabain” value is on record as “> ouabain; F2,6 = 252.64, p < 0.001” and the IC50 was determined as 3680 nM. The solubility in data set [3] was under 100 µM.

Regarding `CO[C@@H]1C[C@H](O[C@H]2CC[C@@]3(C)[C@H](CC[C@@]45O[C@@]46CC[C@H](C4=CC(=O)OC4)[C@@]6(C)CC[C@H]35)C2)O[C@H](C)[C@@H]1O` [adynerin], the “inhibition of S. gregaria-Na^+/K^+-ATPase (in words)” value in data set [1] (Supplementary Figure 2) is “lack of inhibition; also recorded: failed to inhibit”. Moreover, the “cardiotonic activity in vertebrates” value in data set [4] was “lack cardiotonic activity”.

`CC12CCC(O)CC1CCC1C2CCC2(C)C(C3=CC(=O)OC3)CCC12O` (stereo not shown) [uzarigenin]: the “inhibition of E. core Na^+/K^+-ATPase compared to ouabain” value in data set [5] (EC, F-test comparison of entire dose-response curves with ouabain) is on record as “< ouabain; F2,6 = 53.30, p < 0.001”. In addition, the “inhibition of E. core Na^+/K^+-ATPase compared to 5β equivalent digitoxigenin” value in data set [5] (setting [7]) was “no difference”. Also, the IC50 in data set [5] amounted to 4580 nM. In data set [2], the “inhibition of D. plexippus Na^+/K^+-ATPase compared to ouabain” value was “> ouabain; F2,6 = 5.73, p = 0.04” and the IC50 was 16000 nM. In data set [2] (setting [7]), the “inhibition of D. plexippus Na^+/K^+-ATPase compared to 5β equivalent digitoxigenin” value is “no difference”. Also, the “solubility compared to 5-β-isomer digitoxigenin” value in data set [3] (ambient conditions) is reported as “at least three to four times lower; also recorded: strongly reduced”. This compound gave a solubility in data set [3] of under 100 µM.

Consider `C[C@@H]1O[C@@H](O[C@H]2C[C@@H](O)[C@]3(CO)[C@H]4[C@H](O)C[C@]5(C)[C@@H](C6=CC(=O)OC6)CC[C@]5(O)[C@@H]4CC[C@]3(O)C2)[C@H](O)[C@H](O)[C@H]1O` [ouabain, reference compound], for which the IC50 in data set [1] amounted to 997 nM; in data set [5] it was 1030 nM; in data set [2], 94000 nM; in data set [6], 486 nM.

The solubility is how much of the substance goes into solution per volume. Low readings indicate a poorly soluble substance, high ones a readily soluble substance.
